Here are results for six compounds from ChEMBL document CHEMBL1201862, “PubChem BioAssay data set” (2004).

SMILES strings stand for the structures.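 1) Cells in 96-well plates. 2) Compound, 48 h, 5 concentrations. 3) Linear interpolation between surrounding doses. 4) Unreached endpoint = highest concentration. At the GI50, growth is halved.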 Calls of active or inactive are those of the source. Rule as the data show it: active = GI50 up to about 1.1 µM and inactive = higher. Where only a bound is given, the exact number is not on record here.

Among the test systems are CCRF-CEM; EKVX; HCC 2998; HCT-15; HL-60; MOLT-4; NCI-H23; NCI-H522; OVCAR-4; SF-539; SK-MEL-28; SK-MEL-2; SK-OV-3; TK-10; U-251.
Experiment in all cases: NCI tumour cell line growth inhibition, 48 h

Regarding `CCNC1=Nc2ccc(Cl)cc2C(c2ccccc2)=NN1`, the GI50 with CCRF-CEM was 38.4 µM (inactive); in the assay on EKVX, 45.9 µM (inactive); in the assay with HCC 2998, 18.7 µM (inactive); in the assay with HCT-15, 16.9 µM; with HL-60, 22.3 µM (inactive); with MOLT-4, 25.2 µM (inactive). Also, the GI50 was 27.5 µM (inactive) with NCI-H23; 14.6 µM (inactive) in the assay on NCI-H522; 31.6 µM (inactive) with OVCAR-4; 19.8 µM (inactive) in the assay on SF-539; 17.5 µM (inactive) in the assay with SK-MEL-28; 16.7 µM (inactive) in the assay on SK-MEL-2. For the same compound, the GI50 is 37.1 µM (inactive) with SK-OV-3, 28.4 µM (inactive) with TK-10 and 20.5 µM (inactive) with U-251.
For `CSc1nc2c(c(O)c(C)c(=O)n2C2OC(COC(C)=O)C(OC(C)=O)C(OC(C)=O)C2OC(C)=O)c(=O)n1C` (stereo not drawn), the GI50 in the assay on CCRF-CEM is > 100 µM (inactive); with EKVX it was > 100 µM (inactive); in the assay on HCC 2998 it was > 100 µM (inactive); with HCT-15, greater than 100 µM; in the assay on HL-60, > 100 µM (inactive); in the assay with NCI-H23 it was > 100 µM (inactive). The GI50 with NCI-H522, in the assay on OVCAR-4, in the assay on SF-539, in the assay on SK-MEL-28, in the assay on SK-MEL-2 and in the assay with SK-OV-3 was > 100 µM (inactive) throughout. Besides, the GI50 with TK-10 and with U-251 was > 100 µM (inactive) in each case.
`CC1(C)C(c2ccccc2)C12CCC1(C2=O)C(c2ccccc2)C1(C)C` (stereo not drawn): the GI50 in the assay on CCRF-CEM is 18.9 µM (inactive); in the assay with EKVX, 25.1 µM (inactive); in the assay on HCC 2998, 18.4 µM (inactive); in the assay on HCT-15, 24.2 µM; in the assay with HL-60, 20.1 µM (inactive); with MOLT-4 it was 18.9 µM (inactive). Moreover, the GI50 with NCI-H23 is 18.9 µM (inactive); in the assay with NCI-H522 it was 13.5 µM (inactive); with OVCAR-4, 31.3 µM (inactive); in the assay with SF-539, 26.8 µM (inactive); in the assay with SK-MEL-28, 27.2 µM (inactive); with SK-MEL-2, 19.7 µM (inactive). The GI50 in the assay on TK-10 was 34.5 µM (inactive); in the assay with U-251 it was 17.8 µM (inactive).
Take `ON=C1CCC(c2ccccc2)CC1` (stereo not drawn): the GI50 was > 100 µM (inactive) with CCRF-CEM; > 100 µM (inactive) in the assay with EKVX; > 100 µM (inactive) in the assay with HCC 2998; greater than 100 µM in the assay on HCT-15; > 100 µM (inactive) in the assay with HL-60; > 100 µM (inactive) with NCI-H23. The GI50 in the assay with NCI-H522, in the assay on OVCAR-4, in the assay with SF-539, with SK-MEL-28, in the assay on SK-MEL-2 and in the assay with SK-OV-3 was > 100 µM (inactive) in each case. Also, the GI50 in the assay with TK-10 and in the assay on U-251 was > 100 µM (inactive) throughout.
As to `Nc1nc2ncn(CCO)c2c(=S)[nH]1`, the GI50 in the assay with CCRF-CEM was > 100 µM (inactive); in the assay with EKVX, > 100 µM (inactive); in the assay with HCC 2998, > 100 µM (inactive); in the assay on HCT-15 it was greater than 100 µM; in the assay on HL-60, > 100 µM (inactive); with NCI-H522, > 100 µM (inactive). The GI50 in the assay on OVCAR-4, with SF-539, in the assay with SK-MEL-28, in the assay with SK-MEL-2, with SK-OV-3 and in the assay on TK-10 was > 100 µM (inactive) in each case. The GI50 with U-251 is > 100 µM (inactive).
Regarding `O=C1[C@@H](c2ccc(Cl)cc2)[C@H]2CC=C[C@H]2N1O`, the GI50 in the assay on CCRF-CEM was 51.2 µM (inactive); with EKVX, > 100 µM (inactive); with HCC 2998, 52.8 µM (inactive); in the assay with HCT-15, 91.4 µM; in the assay with HL-60, > 100 µM (inactive); in the assay with MOLT-4, 66.1 µM (inactive). Besides, the GI50 is > 100 µM (inactive) in the assay on NCI-H23; 71.1 µM (inactive) in the assay with NCI-H522; > 100 µM (inactive) in the assay with SF-539; > 100 µM (inactive) with SK-MEL-28; > 100 µM (inactive) in the assay with SK-MEL-2; > 100 µM (inactive) with SK-OV-3. In addition, the GI50 in the assay on TK-10 was > 100 µM (inactive).
